Reference: patent publication US11685747B2, “Compounds that inhibit MCL-1 protein” (AMGEN INC., priority 2014, dated 2023)

Legend:
recombinant human Mcl-1 = biological target: T1, recombinant human Mcl-1 (Homo sapiens, UniProt Q07820); experiment: Cell free Mcl-1:Bim affinity assay (Mcl-1 HTRF, TR-FRET); type: binding; details: inhibition of Mcl-1/Bim interaction
T1 construct: C-terminally 6×His tagged Mcl-1 containing residues 171-327; made in house
Method: Cell Free Mcl-1:Bim Affinity Assay (Mcl-1 HTRF)
The inhibition of the Mcl-1/Bim interaction was measured using a time-resolved fluorescence resonance energy transfer (TR-FRET) assay. […] A biotinylated peptide derived from human Bim (residues 51-76) was purchased from CPC Scientific (San Jose, Calif.). The TR-FRET assay was conducted in a 384-well white OptiPlate™ (PerkinElmer, Waltham, Mass.) in a total volume of 40 μL. […] The reaction plates were further incubated overnight and then were read on an Envision® multimode reader (PerkinElmer). […] The IC50 values of test compounds were determined from duplicate data by analyzing competition curves using a four-parameter sigmoidal model in GraphPad Prism (GraphPad Software, San Diego, Calif.) or in Genedata Screener® (Genedata, Basel, Switzerland).

[1] = biological target: T2, Mcl-1/Bak protein-protein interactions (Homo sapiens, UniProt Q07820); experiment: Cell-based split luciferase complementation assay; details: HEK 293 M cells, serum-free, 4 h
T2 construct: expressed in transfected cells; host or cells: HEK 293 M cells, transient transfection
T2 sequence (Q07820 whole entry): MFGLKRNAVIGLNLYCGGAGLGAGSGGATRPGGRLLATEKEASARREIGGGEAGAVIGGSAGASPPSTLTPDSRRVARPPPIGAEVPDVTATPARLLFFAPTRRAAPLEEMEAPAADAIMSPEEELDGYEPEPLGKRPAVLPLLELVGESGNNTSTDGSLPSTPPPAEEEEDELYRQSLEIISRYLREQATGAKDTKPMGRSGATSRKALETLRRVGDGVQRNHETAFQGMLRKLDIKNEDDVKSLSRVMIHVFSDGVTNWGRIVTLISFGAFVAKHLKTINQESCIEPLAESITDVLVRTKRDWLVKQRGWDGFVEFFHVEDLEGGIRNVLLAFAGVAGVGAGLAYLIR
Method: Cell-Based Assay (Split Luciferase)
A split luciferase complementation assay was developed to determine the inhibition of Mcl-1/Bak protein-protein interactions in cells. […] Transient transfection was performed using Lipofectamine® LTX/Plus™ reagent (Life Technologies, Grand Island, N.Y.). 24 h after transfection, cells were collected using non-enzyme based cell dissociation buffer StemPro® Accutase® (Life Technologies), and resuspended in serum-free Opti-MEM® (Life Technologies). Cells were then seeded into assay plates with serially diluted test compounds in 0.3% DMSO at density of a 5000 cells/well. Cells were then incubated for 4 h at 37° C. in a cell culture incubator supplement with 5% CO2. Test plates were equilibrated to room temperate for 30 min before addition of 30 μL Steady-Glo® Luciferase assay reagent (Promega, Madison, Wis.) into each test well. Luminescence was determined using an EnVision® Multilabel plate reader 25 min after the addition of detection reagent. IC50 values were then calculated with Xlfit using a logistical 4-parameter fit model in GraphPad Prism (GraphPad Software, San Diego, Calif.) or in Genedata Screener® (Genedata, Basel, Switzerland).

OPM-2 = experiment: Cell viability assay (OPM-2 10 FBS, CellTiter-Glo); type: cell-based, human; details: OPM-2 cells
Method: Cell Viability Assay (OPM-2 10 FBS)
Cells were seeded into 384-well plates at 3000 cells/well density in complete growth medium containing 10% FBS, and incubated for 16 h with serially diluted test compounds in a 37° C. incubator with 5% CO2. Cell viability was tested using CellTiter-Glo® assay (Promega, Madison, Wis.) according to the manufacturer recommendations. Luminescence was determined using an EnVision® Multilabel plate reader 25 min after the addition of detection reagent. IC50 values were then calculated with Xlfit using a logistical 4-parameter fit model in GraphPad Prism (GraphPad Software, San Diego, Calif.) or in Genedata Screener® (Genedata, Basel, Switzerland).

T1 sequence (Q07820 171-327): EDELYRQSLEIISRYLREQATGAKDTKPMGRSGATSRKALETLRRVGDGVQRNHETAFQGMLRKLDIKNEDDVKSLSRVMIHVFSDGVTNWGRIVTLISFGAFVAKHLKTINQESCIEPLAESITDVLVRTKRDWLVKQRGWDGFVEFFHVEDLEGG

SMILES | IC50 (recombinant human Mcl-1) | IC50 [1] | IC50 (OPM-2; 16 h) | IC50 (OPM-2; Homo sapiens, OPM-2, 16 h)
C[C@H]1C/C=C/[C@H](O)[C@@H]2CC[C@H]2CN2C[C@@]3(CCCc4cc(Cl)ccc43)COc3ccc(cc32)C(=O)NS(=O)(=O)[C@@H]1C1CCC1 (single isomer, unassigned) [Example 56] | 0.289 nM | 31.9 nM | 208 nM | –
C[C@H]1C/C=C/[C@H](O)[C@@H]2CC[C@H]2CN2C[C@@]3(CCCc4cc(Cl)ccc43)COc3ccc(cc32)C(=O)NS(=O)(=O)[C@@H]1C1CC1 (single isomer, unassigned) [Example 47] | 0.248 nM | 60 nM | 284 nM | –
COCCO[C@H]1/C=C/C[C@@H](C)CS(=O)(=O)NC(=O)c2ccc3c(c2)N(C[C@@H]2CC[C@H]21)C[C@@]1(CCCc2cc(Cl)ccc21)CO3 (single isomer, unassigned) [Example 77] | 6.12 nM | 260 nM | 3160 nM | –
C[C@H]1C/C=C/[C@H](O)[C@@H]2CC[C@H]2CN2C[C@@]3(CCCc4cc(Cl)ccc43)COc3ccc(cc32)C(=O)NS(=O)(=O)[C@@H]1C1CCC1 (single isomer, unassigned) [Example 55] | 15.2 nM | 863 nM | 8690 nM | –
CC[C@@H]1CC/C=C/[C@H](OC)[C@@H]2CC[C@H]2CN2C[C@@]3(CCCc4cc(Cl)ccc43)COc3ccc(cc32)C(=O)NS1(=O)=O [Example 20, (1S,3′R,6′R,7′S,8′E,12′R)-6-Chloro-12′-Ethyl-7′-Methoxy-3,4-Dihydro-2H,15′H-Spiro[Naphthalene-1,22′-[20]Oxa[13]Thia[1,14]Diazatetracyclo[14.7.2.0^3,6.0^19,24]Pentacos A[8,16,18,24]Tetraen]-15′-One 13′,13′-Dioxide] | 0.647 nM | 50.4 nM | – | 390 nM
C[C@@H]1C/C=C/[C@H](O)[C@@H]2CC[C@H]2CN2C[C@@]3(CCCc4cc(Cl)ccc43)COc3ccc(cc32)C(=O)NS(=O)(=O)C1 (single isomer, unassigned) [Example 30] | 0.38 nM | 26.5 nM | 161 nM | –
CC1(C)CC/C=C\[C@H](O)[C@@H]2CC[C@H]2CN2C[C@@]3(CCCc4cc(Cl)ccc43)COc3ccc(cc32)C(=O)NS1(=O)=O (single isomer, unassigned) [Example 41] | 4.42 nM | 128 nM | – | 4750 nM
CCCCO[C@H]1/C=C/C[C@H](C)[C@@H](C)S(=O)(=O)NC(=O)c2ccc3c(c2)N(C[C@@H]2CC[C@H]21)C[C@@]1(CCCc2cc(Cl)ccc21)CO3 [Example 73, (1S,3′R,6′R,7′S,8′E,11′S,12′R)-7′-Butoxy-6-Chloro-11′,12′-Dimethyl-3,4-Dihydro-2H,15′H-Spiro[Naphthalene-1,22′ [20]Oxa[13]Thia[1,14]Diazatetracyclo[14.7.2.0^3,6.0^19,24]Pentacos A[8,16,18,24]Tetraen]-15′-One 13′,13′-Dioxide] | 0.367 nM | 34.4 nM | – | 174 nM
CO[C@H]1CCC[C@H](C)[C@@H](C)S(=O)(=O)NC(=O)c2ccc3c(c2)N(C[C@@H]2CC[C@H]21)C[C@@]1(CCCc2cc(Cl)ccc21)CO3 [Example 7, (1S,3′R,6′R,7′S,11′S,12′R)-6-Chloro-7′-Methoxy-11′,12′-Dimethyl-3,4-Dihydro-2H,15′H-Spiro[Naphthalene-1,22′-[20]Oxa[13]Thia[1,14]Diazatetracyclo[14.7.2.0^3,6.0^19,24]Pentacos A[16,18,24]Trien]-15′-One 13′,13′-Dioxide] | 1.18 nM | 147 nM | – | 1060 nM
CC(C)[C@@H]1[C@H](C)C/C=C/[C@H](O)[C@@H]2CC[C@H]2CN2C[C@@]3(CCCc4cc(Cl)ccc43)COc3ccc(cc32)C(=O)NS1(=O)=O (single isomer, unassigned) [Example 51] | 24.3 nM | 792 nM | 14400 nM | –
CC[C@@H]1CC/C=C/[C@H](OCCOC)[C@@H]2CC[C@H]2CN2C[C@@]3(CCCc4cc(Cl)ccc43)COc3ccc(cc32)C(=O)NS1(=O)=O [Example 75, (1S,3′R,6′R,7′S,8′E,12′R)-6-Chloro-12′-Ethyl-7′-(2-Methoxyethoxy)-3,4-Dihydro-2H,15′H-Spiro[Naphthalene-1,22′-[20]Oxa[13]Thia[1,14]Diazatetracyclo[14.7.2.0^3,6.0^19,24]Pentacosa[8,16,18,24]Tetraen]-15′-One 13′,13′-Dioxide] | 2.83 nM | 159 nM | – | 2560 nM
CCC[C@@H]1[C@@H](C)C/C=C/[C@H](O)[C@@H]2CC[C@H]2CN2C[C@@]3(CCCc4cc(Cl)ccc43)COc3ccc(cc32)C(=O)NS1(=O)=O (single isomer, unassigned) [Example 68] | 0.501 nM | 16.4 nM | 179 nM | –
C[C@@H]1[C@@H](C)CCC[C@H](O)[C@@H]2CC[C@H]2CN2C[C@@]3(CCCc4cc(Cl)ccc43)COc3ccc(cc32)C(=O)NS1(=O)=O [Example 6, (1S,3′R,6′R,7′S,11′S,12′R)-6-Chloro-7′-Hydroxy-11′,12′-Dimethyl-3,4-Dihydro-2H,15′H-Spiro[Naphthalene-1,22′-[20]Oxa[13]Thia[1,14]Diazatetracyclo[14.7.2.0^3,6.0^19,24]Pentacos A[16,18,24]Trien]-15′-One 13′,13′-Dioxide] | 0.447 nM | 57.5 nM | – | 394 nM
CC(C)[C@@H]1[C@H](C)C/C=C/[C@H](O)[C@@H]2CC[C@H]2CN2C[C@@]3(CCCc4cc(Cl)ccc43)COc3ccc(cc32)C(=O)NS1(=O)=O (single isomer, unassigned) [Example 49] | 0.317 nM | 46.2 nM | 184 nM | –
CC(C)C[C@@H]1[C@@H](C)C/C=C/[C@H](O)[C@@H]2CC[C@H]2CN2C[C@@]3(CCCc4cc(Cl)ccc43)COc3ccc(cc32)C(=O)NS1(=O)=O (single isomer, unassigned) [Example 66] | 2.12 nM | 224 nM | 2330 nM | –
CC[C@@H]1CCCC[C@H](O)[C@@H]2CC[C@H]2CN2C[C@@]3(CCCc4ccccc43)COc3ccc(cc32)C(=O)NS1(=O)=O [Example 22, (1S,3′R,6′R,7′S,12′R)-12′-Ethyl-7′-Hydroxy-3,4-Dihydro-2H,15′H-Spiro[Naphthalene-1,22′-[20]Oxa[13]Thia[1,14]Diazatetracyclo[14.7.2.0^3,6.0^19,24]Pentacos A[16,18,24]Trien]-15′-One 13′,13′-Dioxide] | 0.704 nM | 117 nM | – | 1250 nM
CCC[C@@H]1[C@@H](C)C/C=C/[C@H](O)[C@@H]2CC[C@H]2CN2C[C@@]3(CCCc4cc(Cl)ccc43)COc3ccc(cc32)C(=O)NS1(=O)=O (single isomer, unassigned) [Example 69] | 8.66 nM | 425 nM | 2710 nM | –
COCCO[C@H]1/C=C/C[C@H](C)[C@@H](C)S(=O)(=O)NC(=O)c2ccc3c(c2)N(C[C@@H]2CC[C@H]21)C[C@@]1(CCCc2cc(Cl)ccc21)CO3 [Example 74, (1S,3′R,6′R,7′S,8′E,11′S,12′R)-6-Chloro-7′-(2-Methoxyethoxy)-11′,12′-Dimethyl-3,4-Dihydro-2H,15′H-Spiro[Naphthalene-1,22′-[20]Oxa[13]Thia[1,14]Diazatetracyclo[14.7.2.0^3,6.0^19,24]Pentacosa[8,16,18,24]Tetraen]-15′-One-13′, 13′-Dioxide] | 2.23 nM | 273 nM | – | 1740 nM
CO[C@H]1CCCC[C@@H](C)S(=O)(=O)NC(=O)c2ccc3c(c2)N(C[C@@H]2CC[C@H]21)C[C@@]1(CCCc2cc(Cl)ccc21)CO3 [Example 16, (1S,3′R,6′R,7′S,12′R)-6-Chloro-7′-Methoxy-12′-Methyl-3,4-Dihydro-2H,15′H-Spiro[Naphthalene-1,22′-[20]Oxa[13]Thia[1,14]Diazatetracyclo[14.7.2.0^3,6.0^19,24]Pentacos A[16,18,24]Trien]-15′-One 13′,13′-Dioxide] | 2.08 nM | 107 nM | – | 4340 nM
